The assay deals with P. falciparum 3D7 growth, pLDH absorbance. The experiment in a line: P. falciparum 3D7 growth inhibition, dose response, strain 3D7 (AID 2305).

Each structure is given as a SMILES string.

In general, IC50 refers to the concentration that inhibits the measured activity by half. Lower therefore signals inhibition by little substance.

Compound `CN(C)CCCc1cc(NC(=O)Nc2cccc(Cl)c2Cl)ccc1I` yielded a concentration for half-maximal inhibition (IC50) of 540 nM.

`COCCn1c(-c2nc(-c3ccc(F)cc3)cnc2N)nc2ccccc21`: the IC50 worked out at 870 nM.

With `Cc1[nH]c(C)c(Cc2ccc(Oc3ccc(OC(F)(F)F)cc3)cc2)c(=O)c1Br`, the half-maximal inhibitory concentration (IC50) turned out to be 690 nM.

The compound `N#Cc1ccc(N2CCN(C(=O)c3cccc(-c4noc(C(F)(F)F)n4)c3)CC2)nc1` displayed a half-inhibitory concentration (IC50) of 220 nM.

In turn, `CCCCCC(NCCCC)c1ccc(OCCOc2ccc(C(CCCCC)NCCCC)cc2)cc1` (centres undefined) displayed an IC50 of 1240 nM.

In turn, `O=C(NCCCCN1CCC(c2ccc(C(F)(F)F)cc2C(F)(F)F)CC1)c1ccc(NC(=O)c2ccc(Cl)cc2)cc1` had an IC50 of 610 nM.

Take `Cc1csc(-c2ncc(OC[C@@H](N)Cc3ccccc3)cc2-c2ccc3n[nH]c(C)c3c2)c1`: the IC50 was found to be 840 nM.

`COC(=O)c1cccc(CNCc2cccc(-c3csc(-c4nc5ccccc5[nH]4)c3)c2)c1` showed a half-inhibitory concentration (IC50) of 690 nM.

The compound `Nn1c(=O)oc2ccc(Cl)cc2c1=O` came in with a half-inhibitory concentration (IC50) of 190 nM.

In the case of `O=C1CCCN1CCCNCc1cccc(-c2ccc(-c3nc4ccc(C(F)(F)F)cc4[nH]3)cc2)c1`, the 50% inhibitory concentration (IC50) stood at 300 nM.

In turn, `Cc1cccc(CC2CC(=O)N(c3ccc([N+](=O)[O-])cc3)C2=O)c1` (centres undefined) returned a half-inhibitory concentration (IC50) of 200 nM.

As to `CNC(=O)c1c(NC(=O)c2cccs2)sc2c1CCCC2`, the half-maximal inhibitory concentration (IC50) came out at 820 nM.

As for `CCN1CCC(N(Cc2ccc(-c3ccc(C(F)(F)F)cc3)cc2)C(=O)Cn2c(SCc3cccc(F)c3F)cc(=O)c3ccccc32)C1` (centres undefined), the IC50 worked out at 880 nM.

In turn, `O=C(Nc1ccc(Cl)cc1)Nc1ccc(Cn2ncc(N3CCCNCC3)c(Cl)c2=O)cc1` yielded a concentration for half-maximal inhibition (IC50) of 780 nM.

As to `Cc1cc(N[C@@H](CC(C)C)C(=O)NC2CCCC2)nc(NCc2ccccc2C)n1`, the IC50 was 1340 nM.

The compound `COc1ccccc1C(C)NCC(=O)Nc1cccc(C(=O)Nc2cccc(C(F)(F)F)c2)c1` (centres undefined) came in with an IC50 of 1530 nM.

In turn, `CN(Cc1ccc(-c2ccc(C(F)(F)F)cc2)cc1)C(=O)Cn1c(CCc2cccc(F)c2F)nc(=O)c2ccc(N3CCN(CCN4CCCCC4)CC3)nc21` yielded an IC50 of 760 nM.

Take `Nc1ncc(-c2cccc(CCN3CCOCC3)c2)cc1-c1nc2ccc(Br)cc2[nH]1`: the IC50 was 280 nM.

With `Nc1c(Cl)cc(C(O)CNCCCCCOCCc2ccc3ccccc3n2)cc1Cl` (centres undefined), the IC50 is 1020 nM.

Regarding `COCCN(C)c1ccc(C(=O)Nc2ccccc2)cc1NS(=O)(=O)Cc1ccccc1`, the IC50 was 570 nM.

`Cc1nn(CC(C)C)c2sc(C(=O)N3CCN(S(=O)(=O)c4ccc(C#N)cc4)CC3)cc12`: the 50% inhibitory concentration (IC50) worked out at 740 nM.

In turn, `COCCn1c(C)nc2ccccc2c1=O` returned a half-maximal inhibitory concentration (IC50) of 1460 nM.

On to `CCOC(=O)CNC(=O)N(CCN(Cc1ccccc1)C(=O)NCC(=O)OCC)Cc1ccccc1`, for which the IC50 was determined as 770 nM.

With `O=C(Nc1cccc(-c2ccc(-c3nc4ccc(F)cc4[nH]3)cc2)c1)c1csnn1`, the IC50 worked out at 280 nM.

As to `CC(C)COc1ccc(Cl)cc1Cc1ccc(-c2nc3ccc(C(F)(F)F)cc3[nH]2)o1`, the concentration for half-maximal inhibition (IC50) came to 850 nM.

Regarding `CN(C(=O)Nc1ccc(F)cc1)C1CCN(CCCCCNC(=O)/C=C/c2ccc(Cl)c(Cl)c2)CC1`, the IC50 was found to be 890 nM.

The compound `CN1CCN(CC2(Nc3nccc(NCCc4cn(C)c5ccccc45)n3)CCCCC2)CC1` gave an IC50 of 1810 nM.

The compound `COc1cccc(Nc2nccc(NCC(O)c3ccc(C(F)(F)F)cc3)n2)c1` (centres undefined) had an IC50 of 660 nM.

With `COc1ccc2nccc([C@@H](O)CN3CCC(NCc4ccc5sc(=O)[nH]c5c4)CC3)c2c1`, the IC50 stood at 290 nM.

As to `N#Cc1cccc(C(=O)Nc2cccc(-c3ccc(C(=O)Nc4cccnc4)cc3)c2)c1`, the IC50 was 690 nM.

The compound `O=C(c1ccc(Br)o1)N1N=C(c2cccs2)CC1c1ccc(Br)cc1` (centres undefined) came in with an IC50 of 510 nM.

As for `C[C@@H](NC(C)(C)C)[C@H](O)c1ccc(Cl)c(C(F)(F)F)c1`, the IC50 amounted to 740 nM.

In turn, `N#Cc1cccc(NC(=O)Nc2ccc(-c3cccc(-c4nc5ccc(F)cc5[nH]4)c3)cc2)c1` gave an IC50 of 270 nM.

In turn, `CN1CCN(CCCCCNc2c3ccccc3nc3ccccc23)CC1` returned a concentration for half-maximal inhibition (IC50) of 740 nM.

The compound `S=C(NCCCCCN1CCC(c2c[nH]c3ccccc23)CC1)Nc1cccc(I)c1` showed a concentration for half-maximal inhibition (IC50) of 840 nM.

As for `CC(=O)Nc1nc(C(=O)Nc2cccc(-c3cccc(-c4nc5c(C)cccc5[nH]4)c3)c2)cs1`, the half-maximal inhibitory concentration (IC50) is 110 nM.

With `CC(C)NCc1ccc(-c2ccc(CN3CCCC(c4ccccc4)C3)cc2)c(C(=O)NCC2CCCCC2)c1` (centres undefined), the half-inhibitory concentration (IC50) came out at 720 nM.

In turn, `CCCCCCCCN1CCCN(C(=O)c2cccc(NC(=O)Nc3ccc4ccccc4c3)c2)CC1` registered a half-inhibitory concentration (IC50) of 760 nM.

`Cc1noc(C)c1-c1cccc(CNCc2cccc(-c3ccc(-c4nc5ccc(C(F)(F)F)cc5[nH]4)s3)c2)c1` registered an IC50 of 170 nM.

Consider `COc1ccc2nccc(N3CCC(NCc4ccc5c(n4)NC(=O)CS5)CC3)c2n1`, for which the IC50 is 860 nM.

The compound `Nc1nc(N)c2c(ccc3c2ccn3Cc2ccc(-c3ccccc3)cc2)n1` came in with an IC50 of 50 nM.

`COc1ccccc1CNc1ncc(-c2ccsc2)c(-c2nccs2)n1` registered a 50% inhibitory concentration (IC50) of 330 nM.

In turn, `COc1cc(NC(=O)c2sc(-c3ccc(Cl)cc3)cc2NC(=O)CN2CC[C@@H](O)C2)ccc1OCCN1CCCC1` displayed a half-maximal inhibitory concentration (IC50) of 800 nM.

`CC(C)C[C@H](NC(=O)c1cc2ccccc2s1)C(=O)N[C@H]1CCN(Cc2ccc(OCCCN(C)C)c(Cl)c2)C1` displayed a concentration for half-maximal inhibition (IC50) of 900 nM.

Consider `CC(C)(C)c1ccc(S(=O)(=O)Nc2ccccc2N2CCOCC2)cc1`, for which the IC50 is 680 nM.

Consider `COc1ccc(CN(C)CCCOc2ccc(NC(=O)c3cccc4c(=O)c5cccc(F)c5[nH]c34)cc2)cc1OC`, for which the half-maximal inhibitory concentration (IC50) came to 640 nM.

With `Cc1ccc(NC(=O)c2cccc(CN3CCCN(CC4CCCCC4)CC3)c2)cc1F`, the IC50 is 600 nM.

`CCCCCOc1ccc(C(O)C(CCC(CN2CCCCCC2)C(O)c2ccc(OCCCCC)cc2)CN2CCCCCC2)cc1` (centres undefined) registered a half-inhibitory concentration (IC50) of 770 nM.

The compound `CCN(CC)CCn1c(=N)n(CC(=O)c2ccc(-c3ccccc3)cc2)c2ccccc21` returned a concentration for half-maximal inhibition (IC50) of 1140 nM.

Regarding `CC(=O)Nc1nnc(SCc2c(C)cc(C(C)(C)C)cc2C)s1`, the IC50 is 700 nM.

The compound `COc1c(CN2CCOCC2)cccc1-c1cc2c(-c3ccc(C(=O)O)c(C(C)C)c3)ccnc2[nH]1` displayed an IC50 of 740 nM.

For `CCCCN(CCCC)CCCN(CCCN(CCCC)CCCC)c1cc(C)nc(Nc2ccc3cc(Br)ccc3c2)n1`, the IC50 worked out at 320 nM.

`O=C(Nc1ccc(C(=O)Nc2ccc(C3=NCCN3)cc2)cc1)Nc1ccc(C2=NCCN2)cc1` had an IC50 of 180 nM.

For the compound `CN1CCN(CC(=O)Nc2cccc(-c3cccc(-c4nc5ccc(F)cc5[nH]4)c3)c2)CC1`, the half-inhibitory concentration (IC50) was 740 nM.

`COc1ccc(CCNCCCCCNCCCc2ccc(Cl)cc2)cc1OC` gave an IC50 of 810 nM.

Compound `COc1cc(C(=O)N2CCOC(CCN3CCC(Cc4ccc(F)cc4)CC3)(c3ccc(Cl)c(Cl)c3)C2)cc(OC)c1OC` (centres undefined) yielded an IC50 of 900 nM.

In the case of `COc1ccc2nccc([C@@H](O)CN3CCC(NC(=O)/C=C/c4cc(F)cc(NC(C)=O)c4)CC3)c2c1`, the half-maximal inhibitory concentration (IC50) was 180 nM.

With `COc1cc2nc(N3CCN(C(=O)c4cccc(I)c4)CC3)nc(N)c2cc1OC`, the 50% inhibitory concentration (IC50) came to 1320 nM.

The compound `Cc1ccc2c(=O)cc(CCc3cccc(F)c3F)n(CC(=O)N(Cc3ccc(-c4ccc(C(F)(F)F)cc4)cc3)C3CCN(C(C)C)CC3)c2n1` registered an IC50 of 780 nM.

In turn, `O=C(Nc1cccc(CN2CCCN(Cc3cccnc3)CC2)c1)c1ccc(Cl)c(Cl)c1` yielded an IC50 of 930 nM.

Turning to `CO/C(=C\C=C\c1cc2cc(Cl)c(Cl)cc2[nH]1)C(=O)NCCCN1CCCC[C@@H]1C`, the IC50 is 750 nM.

Consider `COc1ccc(NS(=O)(=O)c2cc(NC(=O)Cn3ccccc3=O)ccc2N2CCCCC2)cc1`, for which the IC50 amounted to 700 nM.

Take `Cc1nnsc1C(=O)Nc1cccc(-c2cccc(-c3nc4ccc(C(F)(F)F)cc4[nH]3)c2)c1`: the 50% inhibitory concentration (IC50) was determined as 240 nM.

Turning to `O=C(Nc1ccc(Cl)cc1Cl)N[C@H]1CCN(CCCCCNC(=O)[C@@H]2C[C@H]2c2ccc(Cl)c(Cl)c2)C1`, the concentration for half-maximal inhibition (IC50) came out at 990 nM.

In turn, `Cc1cccc(C)c1NC1=NC(=S)N(c2cccc(Cl)c2)C12CCC(C(C)(C)C)CC2` (centres undefined) returned a half-inhibitory concentration (IC50) of 760 nM.

For `COC(=O)c1ccc(CC(C)NCC(O)c2cccc(C(F)(F)F)c2)cc1F` (centres undefined), the IC50 stood at 1060 nM.

Regarding `COc1ccc2nc(C)cc(Nc3ccc(Oc4ccc5ccccc5c4)c(Cl)c3)c2c1`, the IC50 is 690 nM.

For `COc1cc(F)c2ncc(Cl)c([C@H](O)CN3CCC(NCc4ccc5c(n4)NC(=O)CO5)CC3)c2c1`, the IC50 was found to be 160 nM.

Compound `CCCCNC(=O)c1cc(CNC2CCCCC2)ccc1-c1cccc(CNCc2ccc(-c3ccccc3)cc2)c1` had an IC50 of 530 nM.

Consider `COc1ccc(C#Cc2ccc(-c3c(C)[nH]c(C)c(Cl)c3=O)cc2)cc1`, for which the IC50 came to 70 nM.

As for `Cc1cc(C(=O)Nc2ccc3c(c2)CCN3C2CCN(Cc3csc4ccccc34)C2)no1` (centres undefined), the IC50 is 120 nM.

Take `O=C(NC1CCC(CN2CCC(c3c[nH]c4ccccc34)CC2)CC1)c1ccc(-c2cc(C(F)(F)F)ccc2Cl)o1` (centres undefined): the half-maximal inhibitory concentration (IC50) worked out at 710 nM.

`O=C(N[C@@H](Cc1ccccc1)C(=O)NCCN1CCCCC1)c1ccc(O)c(-c2cccc(C(F)(F)F)c2)c1` displayed an IC50 of 850 nM.

Compound `Cc1ccccc1C1CCN(C2CCC(NC(=O)c3cc(-c4ccc(Cl)cc4)cs3)CC2)CC1` (centres undefined) returned a half-maximal inhibitory concentration (IC50) of 160 nM.

For the compound `CC(C)CNCc1ccc(-c2ccc(CN(C(=O)NCCc3ccccc3)C3CCN(Cc4ccccc4)CC3)cc2)cc1`, the concentration for half-maximal inhibition (IC50) worked out at 700 nM.

`COc1ccc(CNCc2ccc(-c3ccc(-c4nc5ccccc5[nH]4)cc3)cc2)cc1` gave an IC50 of 240 nM.

On to `CC1(C)CCC(C)(C)c2c1ccc(C1CCN(CCCCNC(=O)c3ccc(-c4ccc(C#N)cc4)cc3)CC1)c2O`, for which the IC50 turned out to be 230 nM.

Turning to `CCn1c(-c2nonc2N)nc2c(-c3ccc(CO)o3)ncc(OCCCN)c21`, the IC50 stood at 1360 nM.

`COc1cc2nc(NCCCOC(C)C)n3nc(-c4ccccc4)nc3c2cc1OC` registered a half-inhibitory concentration (IC50) of 200 nM.

As to `O=C(Nc1ccccc1N1CCOCC1)c1ncoc1-c1ccccc1C(F)(F)F`, the IC50 was found to be 1060 nM.

Regarding `CC(C)(C)c1nn(-c2ccccc2)c2[nH]c(=O)c(CNCCc3ccccc3)cc12`, the IC50 amounted to 870 nM.

For the compound `COc1ccc(OC)c(-c2ccc(=O)n(CC(=O)Nc3cccc4ccccc34)n2)c1`, the IC50 is 900 nM.

As to `CCN1CCCC(Nc2ccnc3cc4ccccc4cc23)C1` (centres undefined), the IC50 came out at 100 nM.

As for `CC(=O)N(C)C1CCN(Cc2ccc(-c3cccc(-c4nc5ccc(F)cc5[nH]4)c3)cc2)C1` (centres undefined), the half-maximal inhibitory concentration (IC50) stood at 600 nM.

Source of the values: PubChem BioAssay AID2305 (GlaxoSmithKline (GSK), 2010).
